# According to PMC8164609 (Environmental Science and Pollution Research International, 2021):
# “And” between values parts separate entries of the source, which are not always exact repeats. Identical values can stand only once. Like-named read-outs stand apart in the source and are kept apart here.
# How the values were obtained:
# S. cerevisiae BMA64/luc = settings: values higher than 2 are considered toxic
# Description: (§1) Yeast bioluminescent assay was performed as previously described (Omoruyi and Pohjanvirta [2018]). Two recombinant yeasts, Saccharomyces cerevisiae BMAEREluc/ERα and Saccharomyces cerevisiae BMA64/luc, were kindly provided by Dr. Johanna Rajasärkkä, Department of Food and Environmental Sciences, Faculty of Agriculture and Forestry, University of Helsinki. In the BMAEREluc/ERα, human ERα is expressed. After estrogen-like chemicals bind to ERα, the dimerized receptor binds to a specific DNA sequence called estrogen response element (ERE), in the promotor region of the luc reporter gene, inducing its expression. In BMA64/luc, the luciferase is expressed constitutively, and this strain can be used for the evaluation of cytotoxicity of test compounds.
# Both strains were revived from glycerol stock solution on agar and broth forms of synthetic complete medium supplemented with the required amino acids. After the absence of contamination was confirmed by observing single colonies’ morphology on agar plate, approximately 10 μL of cultured yeasts in broth was transferred to 4 mL of synthetic defined (SD) medium supplemented with the required amino acids. The culture was incubated at 30°C on a shaker incubator (200 rpm). After 24-h incubation, the culture was diluted with SD broth to reach the optimal density (OD600) of 0.4 CFU/mL. Subsequently, the culture was incubated in the same incubation condition until the OD600 reached 0.6–0.7 CFU/mL.
# (§2) Next, 90 μL of cultured yeasts containing 1:20 luciferin solution (0.042 g luciferin dissolved in 9.75 mL of 0.2 M trisodium citrate, and 5.525 mL of 0.2 M citrate, pH 5) was pipetted into every well of a white 96-well flat-bottom plate, and 10 μL of test compounds in a defined concentration range (diluted in 5% EtOH) were added. The plate was incubated at 30°C for approximately 2.5 h, and was then shaken briefly. The luminescence measurement was performed with Luminoskan Ascent microplate luminometer (Thermo Labsystems) using the recommended settings as follows: 1000 ms integration time, single measurement mode, shaking at 60 rpm for 5 s prior to measurement.
# Each concentration of test compounds and controls in the assay was tested in triplicate, and the experiment was performed twice.
# * The Correction Factor is the luminescence of the strain BMA64/luc with blank solvent divided by the luminescence of the control strain with the sample. Values higher than 2 are considered toxic (Leskinen et al. 2005).
# * The Correction Factor is the luminescence of the strain BMA64/luc with blank solvent divided by the luminescence of the control strain with the sample. Values higher than 2 are considered toxic (Leskinen et al. 2005). […] Each experiment was performed in triplicate.
# MCF-7 cells [1] = assay: MCF-7 cell proliferation assay (MTT reduction); format: cell-based, human; settings: for EC50: Homo sapiens
# Description: MCF-7 cell line which is sensitive to estrogen (ERα^+) was kindly provided by Dr. Sari Tojkander (Department of Veterinary Biosciences, Faculty of Veterinary Medicine, University of Helsinki). Cells were usually grown in T25 or T75 flasks containing DMEM with or without phenol red and supplemented with 7–10% FBS and 4 mM L-glutamine at 37°C in 5% CO2/95% humidified atmosphere. In order to eliminate the disturbing effect of hormones usually present in FBS, cell culture medium supplemented with commercially available charcoal-stripped FBS and 4 mM L-glutamine (SF medium) was used for experiments.
# The effect of EEDCs on the proliferation of MCF-7 cells was assessed as previously described by measuring the capacity of the cells in each well to reduce MTT reagent (Van Meeuwen et al. [2007]). Approximately 5000 cells/200 μL of SF medium containing DMEM without phenol red, 5% charcoal-stripped FBS, and 4 mM L-glutamine were seeded per well in a 96-well cell culture plate. On day 2, cells were treated with the SF medium containing test compounds or vehicle. The final concentration of the solvents DMSO and EtOH was lower than 0.1%. On day 5, the SF medium containing test compounds or vehicle were refreshed. On day 8, cells were washed with PBS twice and then incubated with the SF medium containing 1 mg/mL MTT reagent for 1 h. The ability of MCF-7 cells to reduce MTT was measured at the reference wavelength of 595 nm using a microplate reader (Multiskan Ascent, Thermo Fisher Scientific). All the exposures were in triplicate.
# The dose-response curves of test samples were plotted against logarithmic-transformed concentrations.
# MCF-7 cells [2] = assay: LDH cytotoxicity test; settings: 24 h, up to 10^−4 M
# Description: Cytotoxicity was assessed by lactate dehydrogenase (LDH) release. For LDH measurement, Pierce LDH Cytotoxicity Assay Kit (Thermo Scientific, Rockford, USA) was used. MCF-7 cells were seeded at 2.8×10^5 in a transparent 96-well plate, and corner cells of the plate were filled with PBS to prevent the edge effect. SF medium containing DMEM without phenol red, 1% charcoal-stripped FBS, and 4 mM L-glutamine were used for this assay. Plates were incubated for 24 h, and then the cells were treated with test compounds at concentrations ranging from 10^−14 to 10^−4 M or vehicle for another 24 h. On day 3, culture supernatant was collected in a separate 96-well plate, and the assay was continued according to the manufacturer’s instructions. Final absorbance was measured with the microplate reader at 490 and 680 nm. […] Vehicle control was 0.1% EtOH or DMSO. All the exposures were in triplicate, and the experiment was carried out twice.
# MCF-7 cells [3] = assay: In vitro micronucleus assay for cytokinesis block; format: cell-based, human; settings: 24 h; for Micronuclei per 1000 binucleated cells, Replicates: single replicate values
# Description: The genotoxicity of EEDCs to MCF-7 cells was assessed by the in vitro micronucleus assay for cytokinesis block. MCF-7 cells were seeded at a density of 5×10^4/well in a 12-well plate in SF medium containing DMEM, 7% charcoal-stripped FBS and 4 mM L-glutamine. These cells were treated with test compounds or the positive control for 24 h. Then, cells were washed twice with PBS, treated with 2 μg/mL cytochalasin B, and incubated for 1.5–2 normal cell cycle lengths (~24 h for MCF-7 cells). Finally, cells were washed with PBS and fixed with 4% paraformaldehyde for 10–15 min (in PBS, pH 6.9). Before staining cells with 5% Giemsa stain for 20 min, plates were washed again with PBS and dried. The frequency of micronuclei per 1000 binucleated cells was counted for each well, and the ratio of micronucleus frequency in treated vs. control cells was defined as fold induction. Cells in mitosis were omitted.
# MCF-7 cells [4] = tested on: MCF-7 cells; design: method as in Blanquer-Rosselló et al. [2013]; settings: 0.001–20 μM, ref Blanquer-Rosselló et al. [2013]; cited from earlier work
# MCF-7 cells [5] = tested on: MCF-7 cells; design: method as in Lei et al. [2017]; settings: 10^−4 M, 24-h incubation, LDH leakage; ref Lei et al. [2017]; cited from earlier work
# human ERα = biological target: T1, human ERα (Homo sapiens, UniProt P03372); assay: Yeast bioluminescent assay, S. cerevisiae BMAEREluc/ERα (ERE-luc reporter); format: cell-based; settings: negative control, Fig. 1a
# T1 construct: expressed in transfected cells; host or cells: Saccharomyces cerevisiae BMAEREluc/ERα (recombinant yeast, gift of Dr. Johanna Rajasärkkä, University of Helsinki)
# T1 sequence (P03372 1-595): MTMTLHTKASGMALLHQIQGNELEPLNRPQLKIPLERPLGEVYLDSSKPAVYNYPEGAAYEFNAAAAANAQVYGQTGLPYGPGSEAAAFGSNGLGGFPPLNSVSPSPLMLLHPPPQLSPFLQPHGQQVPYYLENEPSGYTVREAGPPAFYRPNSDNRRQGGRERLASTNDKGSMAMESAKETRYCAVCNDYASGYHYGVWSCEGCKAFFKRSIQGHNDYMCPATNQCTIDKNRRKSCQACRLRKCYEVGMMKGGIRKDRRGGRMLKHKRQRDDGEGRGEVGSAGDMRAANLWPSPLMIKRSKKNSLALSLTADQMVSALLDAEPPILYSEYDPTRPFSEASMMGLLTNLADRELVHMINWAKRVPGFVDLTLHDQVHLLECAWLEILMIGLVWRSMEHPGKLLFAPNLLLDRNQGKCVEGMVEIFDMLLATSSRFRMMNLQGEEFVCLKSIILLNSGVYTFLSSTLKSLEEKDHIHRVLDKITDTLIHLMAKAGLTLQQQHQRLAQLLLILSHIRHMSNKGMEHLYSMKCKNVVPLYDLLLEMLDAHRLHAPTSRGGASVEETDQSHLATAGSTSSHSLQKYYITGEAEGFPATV
# Description: as §1, with “compounds. […]” for “compounds.”
# as §2, with “The plate was incubated at 30°C for approximately 2.5 h, and was then shaken briefly.” left out, “measurement. […]” for “measurement.”
# [6] = MCF7, MCF-7 cells, hormone-depleted medium, MTT, read-out: EC50 (proliferative effect)
SMILES,"Correction Factor (S. cerevisiae BMA64/luc; 5% DMSO, 10^−4 M)","Correction Factor (S. cerevisiae BMA64/luc; 5% DMSO, 10^−6 M)","Correction Factor (S. cerevisiae BMA64/luc; 5% DMSO, 10^−8 M)","Correction Factor (S. cerevisiae BMA64/luc; 5% DMSO, 10^−10 M)","Correction Factor (S. cerevisiae BMA64/luc; 5% DMSO, 10^−12 M)","Correction Factor (S. cerevisiae BMA64/luc; 5% DMSO, 10^−14 M)","Correction Factor (S. cerevisiae BMA64/luc; 5% ethanol, 10^−4 M)","Correction Factor (S. cerevisiae BMA64/luc; 5% ethanol, 10^−6 M)","Correction Factor (S. cerevisiae BMA64/luc; 5% ethanol, 10^−8 M)","Correction Factor (S. cerevisiae BMA64/luc; 5% ethanol, 10^−10 M)","Correction Factor (S. cerevisiae BMA64/luc; 5% ethanol, 10^−12 M)","Correction Factor (S. cerevisiae BMA64/luc; 5% ethanol, 10^−14 M)",EC50 (MCF-7 cells [1]; [6]) [nM],"efficacy (maximum induction of cell growth) compared with 17β-estradiol (MCF-7 cells [1]; MCF-7 cells, MTT)",maximum level of cytotoxicity (LDH release) (MCF-7 cells [2]),"Micronuclei per 1000 binucleated cells, Average (MCF-7 cells [3]; 10^−7 M)","Micronuclei per 1000 binucleated cells, Replicates (MCF-7 cells [3]; 10^−7 M)","Micronuclei per 1000 binucleated cells, Average (MCF-7 cells [3]; 10^−8 M)","Micronuclei per 1000 binucleated cells, Replicates (MCF-7 cells [3]; 10^−8 M)",other results
"CC(C)=CCc1c(O)cc(O)c2c1O[C@H](c1ccc(O)cc1)CC2=O [8-PN, 8-prenylnaringenine]",3.27±0.64,3.31±0.92,2.62±0.30,2.02±0.15,2.32±0.56,2.09±0.35,1.05±0.21,0.94±0.14,0.97±0.04,1.03±0.16,0.92±0.14,0.98±0.12,4.98,about half,less than 2.5%,22.33 per 1000 binucleated cells,24 per 1000 binucleated cells and 20 per 1000 binucleated cells and 23 per 1000 binucleated cells,18.67 per 1000 binucleated cells,16 per 1000 binucleated cells and 19 per 1000 binucleated cells and 21 per 1000 binucleated cells,mitochondrial function and ROS production (MCF-7 cells [4]): improved mitochondrial function and decreased ROS production
C[C@]12CC[C@@H]3c4ccc(O)cc4CC[C@H]3[C@@H]1CC[C@@H]2O [17β-estradiol],3.23±0.53,3.42±0.81,2.98±0.42,3.11±0.47,2.60±0.69,2.59±0.23,1.12±0.12,1.08±0.05,1.11±0.06,–,–,–,0.21,–,less than 2.5%,13.33 per 1000 binucleated cells,10 per 1000 binucleated cells and 13 per 1000 binucleated cells and 17 per 1000 binucleated cells,13 per 1000 binucleated cells,12 per 1000 binucleated cells and 14 per 1000 binucleated cells and 13 per 1000 binucleated cells,–
"CC(C)(c1ccc(O)cc1)c1ccc(O)cc1 [BPA, bisphenol A]",–,–,–,–,–,–,–,–,–,–,–,–,–,–,–,–,–,–,–,increase of MCF-7-cell mortality (MCF-7 cells [5]): more than 80%
O=c1c(-c2ccc(O)cc2)coc2cc(O)cc(O)c12 [genistein],3.19±0.42,2.59±0.95,3.59±1.22,2.20±0.05,2.59±0.45,3.88±1.32,1.59±0.17,1.27±0.42,1.18±0.24,1.07±0.04,1.30±0.22,1.58±0.23,–,about half,less than 2.5%,–,–,–,–,"EC50 (MCF-7 cells [1]; MCF7, read-out: EC50 (proliferative effect)): 831 nM"
CC(=O)[C@H]1CC[C@H]2[C@@H]3CCC4=CC(=O)CC[C@]4(C)[C@H]3CC[C@]12C [progesterone],–,–,–,–,–,–,–,–,–,–,–,–,–,–,–,–,–,–,–,luciferase activity (estrogenic response) (human ERα): did not produce any detectable luciferase activity
CC/C(=C(\c1ccccc1)c1ccc(OCCN(C)C)cc1)c1ccccc1 [tamoxifen],2.87±0.04,2.30±0.14,2.54±0.17,2.47±0.30,2.51±0.21,2.40±0.09,1.35±0.25,1.21±0.32,1.50±0.27,1.28±0.25,1.23±0.16,1.39±0.31,–,–,–,–,–,–,–,"dose-response of proliferation (MCF-7 cells [1]; in the presence of 10^−12 M of 17β-estradiol, Fig. 2b): inverse dose-response curve"
